Experimental data: the supplement of paper PMC13207355

Assays:
Conditions in all cases: exposure time: 72 h
E13 [1] = patient-derived glioblastoma stem cells of classical subtype; test: surviving fraction (nuclei count normalised to DMSO); higher = more cells surviving (less toxic)
E21 [2] = patient-derived glioblastoma stem cells of mesenchymal subtype; test: as above
E28 [3] = patient-derived glioblastoma stem cells of classical subtype; test: as above
E31 [4] = patient-derived glioblastoma stem cells of proneural subtype; test: as above
E34 [5] = patient-derived glioblastoma stem cells of proneural subtype; test: as above
E57 [6] = patient-derived glioblastoma stem cells of mesenchymal subtype; test: as above
FT3469 [7] = normal neural stem cell line; test: as above
E13 [8] = test: phenotypic distance (Euclidean, principal components) from DMSO controls (arbitrary units); higher = stronger morphological change
E21 [9] = test: as above
E28 [10] = test: as above
E31 [11] = test: as above
E34 [12] = test: as above
E57 [13] = test: as above
FT3469 [14] = test: as above
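Throughout, for phenotypic distance (Euclidean, principal components) from DMSO controls: cell Painting imaging in 384-well plates, CellProfiler features reduced to at least 20 principal components, Euclidean distance versus same-plate DMSO vehicle wells (0.1% v/v), median over six images per well.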
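Throughout, for surviving fraction (nuclei count normalised to DMSO): nuclei counted by high-content imaging of Hoechst-stained cells in laminin-coated 384-well plates, relative to 0.1% DMSO vehicle wells, with staurosporine as cell-death control.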

C[C@@H](O)[C@H]1C(=O)N2C(C(=O)O)=C(S[C@@H]3CN[C@H](C(=O)N(C)C)C3)[C@H](C)[C@H]12 [Meropenem]
Conditions	phenotypic distance	surviving fraction
E13 [1], 4.11523 nM	–	0.996
E13 [1], 12.34567901 nM	–	1.11
E13 [1], 37.037 nM	–	0.951
E13 [1], 111.1111111 nM	–	1.09
E13 [1], 333.333 nM	–	1.05
E13 [1], 1000 nM	–	1.31
E13 [1], 3000 nM	–	1.17
E13 [8], 4.11523 nM	0.447	–
E13 [8], 12.34567901 nM	0.391	–
E13 [8], 37.037 nM	0.465	–
E13 [8], 111.1111111 nM	0.343	–
E13 [8], 333.333 nM	0.428	–
E13 [8], 1000 nM	1.47	–
E13 [8], 3000 nM	0.693	–
E21 [2], 4.11523 nM	–	1.15
E21 [2], 12.34567901 nM	–	1.14
E21 [2], 37.037 nM	–	1.07
E21 [2], 111.1111111 nM	–	1.11
E21 [2], 333.333 nM	–	1.02
E21 [2], 1000 nM	–	1.16
E21 [2], 3000 nM	–	1.06
E21 [9], 4.11523 nM	1.01	–
E21 [9], 12.34567901 nM	1	–
E21 [9], 37.037 nM	0.846	–
E21 [9], 111.1111111 nM	3.57	–
E21 [9], 333.333 nM	0.377	–
E21 [9], 1000 nM	0.695	–
E21 [9], 3000 nM	0.387	–
E28 [3], 4.11523 nM	–	1.11
E28 [3], 12.34567901 nM	–	1.17
E28 [3], 37.037 nM	–	1.12
E28 [3], 111.1111111 nM	–	1.08
E28 [3], 333.333 nM	–	1.29
E28 [3], 1000 nM	–	1.23
E28 [3], 3000 nM	–	1.03
E28 [10], 4.11523 nM	0.51	–
E28 [10], 12.34567901 nM	0.969	–
E28 [10], 37.037 nM	0.452	–
E28 [10], 111.1111111 nM	0.706	–
E28 [10], 333.333 nM	0.645	–
E28 [10], 1000 nM	0.83	–
E28 [10], 3000 nM	0.601	–
E31 [4], 4.11523 nM	–	1.13
E31 [4], 12.34567901 nM	–	1.1
E31 [4], 37.037 nM	–	1.15
E31 [4], 111.1111111 nM	–	0.926
E31 [4], 333.333 nM	–	1.17
E31 [4], 1000 nM	–	1.01
E31 [4], 3000 nM	–	1.16
E31 [11], 4.11523 nM	0.705	–
E31 [11], 12.34567901 nM	0.703	–
E31 [11], 37.037 nM	0.741	–
E31 [11], 111.1111111 nM	0.746	–
E31 [11], 333.333 nM	0.485	–
E31 [11], 1000 nM	0.528	–
E31 [11], 3000 nM	0.487	–
E34 [5], 4.11523 nM	–	1.07
E34 [5], 12.34567901 nM	–	1.03
E34 [5], 37.037 nM	–	1.11
E34 [5], 111.1111111 nM	–	1.17
E34 [5], 333.333 nM	–	1.07
E34 [5], 1000 nM	–	0.937
E34 [5], 3000 nM	–	1.02
E34 [12], 4.11523 nM	0.76	–
E34 [12], 12.34567901 nM	0.538	–
E34 [12], 37.037 nM	0.692	–
E34 [12], 111.1111111 nM	0.922	–
E34 [12], 333.333 nM	0.78	–
E34 [12], 1000 nM	0.612	–
E34 [12], 3000 nM	0.538	–
E57 [6], 4.11523 nM	–	1
E57 [6], 12.34567901 nM	–	1.01
E57 [6], 37.037 nM	–	1.01
E57 [6], 111.1111111 nM	–	1.03
E57 [6], 333.333 nM	–	1.01
E57 [6], 1000 nM	–	1.06
E57 [6], 3000 nM	–	0.989
E57 [13], 4.11523 nM	0.603	–
E57 [13], 12.34567901 nM	0.59	–
E57 [13], 37.037 nM	0.529	–
E57 [13], 111.1111111 nM	0.751	–
E57 [13], 333.333 nM	0.536	–
E57 [13], 1000 nM	0.871	–
E57 [13], 3000 nM	0.419	–
FT3469 [7], 4.11523 nM	–	1.24
FT3469 [7], 12.34567901 nM	–	1.17
FT3469 [7], 37.037 nM	–	1.17
FT3469 [7], 111.1111111 nM	–	1.1
FT3469 [7], 333.333 nM	–	1.28
FT3469 [7], 1000 nM	–	0.993
FT3469 [7], 3000 nM	–	0.866
FT3469 [14], 4.11523 nM	0.799	–
FT3469 [14], 12.34567901 nM	1.17	–
FT3469 [14], 37.037 nM	0.764	–
FT3469 [14], 111.1111111 nM	1.09	–
FT3469 [14], 333.333 nM	0.633	–
FT3469 [14], 1000 nM	0.854	–
FT3469 [14], 3000 nM	0.676	–

Cc1cc(C(C)(C)CC(C)(C)C)ccc1OCCOCC[N+](C)(C)Cc1ccccc1 [Methyl benzethonium chloride]
Conditions	phenotypic distance	surviving fraction
E13 [1], 4.1 nM	–	1.06
E13 [1], 37 nM	–	0.985
E13 [1], 111.1 nM	–	1
E13 [1], 333.3 nM	–	0.905
E13 [1], 1000 nM	–	0.77
E13 [1], 3000 nM	–	0.0607
E13 [8], 4.1 nM	0.567	–
E13 [8], 37 nM	0.631	–
E13 [8], 111.1 nM	0.7	–
E13 [8], 333.3 nM	1.46	–
E13 [8], 1000 nM	2.26	–
E13 [8], 3000 nM	7.09	–
E21 [2], 4.1 nM	–	1.05
E21 [2], 37 nM	–	1.08
E21 [2], 111.1 nM	–	1.13
E21 [2], 333.3 nM	–	1.09
E21 [2], 1000 nM	–	1.11
E21 [2], 3000 nM	–	0.0579
E21 [9], 4.1 nM	0.505	–
E21 [9], 37 nM	0.8	–
E21 [9], 111.1 nM	1.42	–
E21 [9], 333.3 nM	1.89	–
E21 [9], 1000 nM	1.88	–
E21 [9], 3000 nM	7.45	–
E28 [3], 4.1 nM	–	1.18
E28 [3], 37 nM	–	1.12
E28 [3], 111.1 nM	–	1.01
E28 [3], 333.3 nM	–	1.03
E28 [3], 1000 nM	–	0.915
E28 [3], 3000 nM	–	0.122
E28 [10], 4.1 nM	0.909	–
E28 [10], 37 nM	0.85	–
E28 [10], 111.1 nM	0.845	–
E28 [10], 333.3 nM	1.63	–
E28 [10], 1000 nM	1.45	–
E28 [10], 3000 nM	5.99	–
E31 [4], 4.1 nM	–	1.14
E31 [4], 37 nM	–	1.3
E31 [4], 111.1 nM	–	0.971
E31 [4], 333.3 nM	–	1.04
E31 [4], 1000 nM	–	0.959
E31 [4], 3000 nM	–	0.0251
E31 [11], 4.1 nM	0.64	–
E31 [11], 37 nM	1.09	–
E31 [11], 111.1 nM	0.959	–
E31 [11], 333.3 nM	1.67	–
E31 [11], 1000 nM	1.56	–
E31 [11], 3000 nM	10.6	–
E34 [5], 4.1 nM	–	1.05
E34 [5], 37 nM	–	1.16
E34 [5], 111.1 nM	–	1.28
E34 [5], 333.3 nM	–	1.15
E34 [5], 1000 nM	–	0.97
E34 [5], 3000 nM	–	0.507
E34 [12], 4.1 nM	0.669	–
E34 [12], 37 nM	1.03	–
E34 [12], 111.1 nM	3.75	–
E34 [12], 333.3 nM	1.62	–
E34 [12], 1000 nM	1.37	–
E34 [12], 3000 nM	2.97	–
E57 [6], 4.1 nM	–	1.1
E57 [6], 37 nM	–	1.08
E57 [6], 111.1 nM	–	0.952
E57 [6], 333.3 nM	–	1.08
E57 [6], 1000 nM	–	0.992
E57 [6], 3000 nM	–	0.232
E57 [13], 4.1 nM	0.767	–
E57 [13], 37 nM	0.775	–
E57 [13], 111.1 nM	0.964	–
E57 [13], 333.3 nM	1.11	–
E57 [13], 1000 nM	1.42	–
E57 [13], 3000 nM	5.11	–
FT3469 [7], 4.1 nM	–	1.08
FT3469 [7], 37 nM	–	1.23
FT3469 [7], 111.1 nM	–	1.28
FT3469 [7], 333.3 nM	–	0.993
FT3469 [7], 1000 nM	–	0.937
FT3469 [7], 3000 nM	–	0.135
FT3469 [14], 4.1 nM	0.966	–
FT3469 [14], 37 nM	0.81	–
FT3469 [14], 111.1 nM	1.14	–
FT3469 [14], 333.3 nM	1.12	–
FT3469 [14], 1000 nM	0.916	–
FT3469 [14], 3000 nM	5.6	–
